Values of other authors, collected in patent US20130035389A1, “METHODS FOR TREATING MYELODYSPLASTIC SYNDROME WITH EZATIOSTAT” (Telik, Inc., priority 2011, published 2013).

Experiments:
leukemia cells = details: in vitro
[1] = test system: hematopoietic progenitor cells; details: in vitro
GST P1-1 = GST P1-1 (Homo sapiens, UniProt P09211); details: leads to de-repression of jun kinase and activation of c-Jun
myelodysplastic syndrome = details: low risk and intermediate-1 risk MDS patients, oral, phase II study

Chain of GST P1-1 (P09211 2-210 limits assumed): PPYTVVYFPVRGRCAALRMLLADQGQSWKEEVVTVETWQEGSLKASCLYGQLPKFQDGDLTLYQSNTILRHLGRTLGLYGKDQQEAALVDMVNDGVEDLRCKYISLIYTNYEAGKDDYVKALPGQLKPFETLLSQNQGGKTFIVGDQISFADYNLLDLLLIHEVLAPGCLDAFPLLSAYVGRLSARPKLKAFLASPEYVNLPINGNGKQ

## CCOC(=O)[C@@H](N)CCC(=O)N[C@@H](CSCc1ccccc1)C(=O)N[C@@H](C(=O)OCC)c1ccccc1 [Ezatiostat, ethyl (2S)-2-amino-5-[[(2R)-3-benzylsulfanyl-1-[[(1R)-2-ethoxy-2-oxo-1-phenylethyl]amino]-1-oxopropan-2-yl]amino]-5-oxopentanoate]
Leukemia cells
  apoptosis in leukemia cells: induce apoptosis in leukemia cells
[1]
  effect on growth and differentiation of hematopoietic progenitor cells: stimulate growth and differentiation of hematopoietic progenitor cells
GST P1-1
  inhibition of GST P1-1: inhibits GST P1-1

## CCOC(=O)[C@@H](N)CCC(=O)N[C@@H](CSCc1ccccc1)C(=O)N[C@@H](C(=O)OCC)c1ccccc1.Cl [ezatiostat hydrochloride]
Myelodysplastic syndrome
  clinical response: multilineage responses
